Results as given in publication PMC7044277 (Nature Communications, 2020).
Where “and” joins values, the source holds several entries; their conditions need not be identical. Identical values can stand only once.

How the values were obtained:
Type in all cases: cell-based
[1] = biological target: T1, 320 non-olfactory GPCRs (Homo sapiens, UniProt P25105); settings: receptor PTAFR; replicate values, Fig_4g
T1 construct: expressed in transfected cells; host or cells: HTLA cells

[2] = biological target: T2, 320 non-olfactory GPCRs (Homo sapiens, UniProt P0DMS8)
T2 construct: expressed in transfected cells; host or cells: HTLA cells

[3] = biological target: T3, 320 non-olfactory GPCRs (Homo sapiens, UniProt Q96LB1); settings: receptor MRGPRX2; replicate values, Fig_4g
T3 construct: expressed in transfected cells; host or cells: HTLA cells

[4] = biological target: T4, 320 non-olfactory GPCRs (Homo sapiens, UniProt Q96P66)
T4 construct: expressed in transfected cells; host or cells: HTLA cells
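Wherever Fold of Basal is given: compound tested at 1 µM final concentration.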
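Wherever GPCRome agonism screen response is given: fold over basal response of each receptor without drug.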

T1 sequence (P25105 whole entry): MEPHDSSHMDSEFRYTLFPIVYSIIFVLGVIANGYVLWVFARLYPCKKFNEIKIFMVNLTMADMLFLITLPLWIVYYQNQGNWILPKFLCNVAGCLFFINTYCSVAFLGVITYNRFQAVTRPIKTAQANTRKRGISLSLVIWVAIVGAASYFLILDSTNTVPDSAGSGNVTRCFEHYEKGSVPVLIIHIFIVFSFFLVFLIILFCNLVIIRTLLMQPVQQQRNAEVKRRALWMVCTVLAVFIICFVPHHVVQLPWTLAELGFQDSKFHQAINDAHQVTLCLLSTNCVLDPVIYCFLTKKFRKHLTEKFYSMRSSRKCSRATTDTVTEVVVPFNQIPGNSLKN
T4 sequence (Q96P66 whole entry): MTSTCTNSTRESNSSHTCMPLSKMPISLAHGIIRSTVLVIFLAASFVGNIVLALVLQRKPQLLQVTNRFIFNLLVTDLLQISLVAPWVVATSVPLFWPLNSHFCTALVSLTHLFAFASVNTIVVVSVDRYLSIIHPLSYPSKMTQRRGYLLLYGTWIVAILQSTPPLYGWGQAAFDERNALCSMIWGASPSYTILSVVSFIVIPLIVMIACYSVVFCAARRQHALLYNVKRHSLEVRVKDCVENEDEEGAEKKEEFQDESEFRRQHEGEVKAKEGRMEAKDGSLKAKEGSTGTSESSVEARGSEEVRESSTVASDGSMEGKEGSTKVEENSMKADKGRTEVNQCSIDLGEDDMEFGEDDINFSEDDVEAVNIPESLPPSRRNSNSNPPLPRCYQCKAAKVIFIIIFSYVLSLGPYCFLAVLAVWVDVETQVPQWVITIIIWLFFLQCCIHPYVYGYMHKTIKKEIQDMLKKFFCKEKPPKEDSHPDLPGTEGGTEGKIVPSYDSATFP
T3 sequence (Q96LB1 whole entry): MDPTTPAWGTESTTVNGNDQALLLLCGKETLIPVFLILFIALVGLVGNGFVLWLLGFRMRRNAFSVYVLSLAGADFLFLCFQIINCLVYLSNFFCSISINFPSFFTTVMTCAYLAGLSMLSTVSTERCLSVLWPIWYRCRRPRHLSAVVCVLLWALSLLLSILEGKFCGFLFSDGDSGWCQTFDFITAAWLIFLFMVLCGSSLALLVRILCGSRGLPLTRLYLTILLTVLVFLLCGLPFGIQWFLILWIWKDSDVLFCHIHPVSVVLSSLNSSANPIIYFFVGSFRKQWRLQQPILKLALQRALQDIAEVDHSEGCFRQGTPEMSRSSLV
T2 sequence (P0DMS8 whole entry): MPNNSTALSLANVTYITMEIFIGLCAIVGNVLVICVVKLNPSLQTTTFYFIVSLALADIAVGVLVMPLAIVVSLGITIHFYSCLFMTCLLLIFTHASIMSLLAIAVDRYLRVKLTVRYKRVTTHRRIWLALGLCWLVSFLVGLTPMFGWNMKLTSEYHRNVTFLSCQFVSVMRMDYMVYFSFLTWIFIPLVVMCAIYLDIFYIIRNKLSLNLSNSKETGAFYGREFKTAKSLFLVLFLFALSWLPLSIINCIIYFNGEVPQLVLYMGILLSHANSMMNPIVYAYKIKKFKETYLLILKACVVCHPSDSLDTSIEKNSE

SMILES: CCOc1cccc2cc(C(C)NCC3(O)CCCCC3)oc12 (stereo not shown) [O4LE6]
- GPCRome agonism screen response [1]: 0.04948 and 0.5552 and 0.8041
- Fold of Basal [2]: 1.06 and 1.364 and 1.085 and 1.781
- GPCRome agonism screen response [3]: 1.268 and 1.306 and 1.279 and 0.9356
- Fold of Basal [4]: 1.216 and 1.226 and 0.7864 and 1.078
